# What was measured:
# Assay in all cases: cells
# Type in all cases: functional, cell-based, Homo sapiens
# NOMO-1 = conditions: Homo sapiens, NOMO-1;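 also: growth inhibition of human NOMO-1 cells measured by a cell viability assay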
# Description: SANGER: Inhibition of human NOMO-1 cell growth in a cell viability assay.
# LB831-BLC = conditions: Homo sapiens, LB831-BLC;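 also: growth inhibition of LB831-BLC cells, read out with a cell viability assay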
# Description: SANGER: Inhibition of human LB831-BLC cell growth in a cell viability assay.
# SW684 = conditions: Homo sapiens, SW684;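 also: growth inhibition of human SW684 cells, measured by a cell viability assay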
# Description: SANGER: Inhibition of human SW684 cell growth in a cell viability assay.
# GI-ME-N = conditions: Homo sapiens, GI-ME-N;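 also: growth inhibition of human GI-ME-N cells, read out with a cell viability assay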
# Description: SANGER: Inhibition of human GI-ME-N cell growth in a cell viability assay.
# NCI-H446 = conditions: Homo sapiens, NCI-H446;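 also: growth inhibition of NCI-H446 cells determined by a cell viability assay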
# Description: SANGER: Inhibition of human NCI-H446 cell growth in a cell viability assay.
# SBC-1 = conditions: Homo sapiens, SBC-1;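 also: cell viability assay measuring growth inhibition of the SBC-1 cell line, IC50 being the concentration that halves growth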
# Description: SANGER: Inhibition of human SBC-1 cell growth in a cell viability assay.
# KG-1 = conditions: Homo sapiens, KG-1;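 also: growth inhibition of KG-1 cells, read out by a cell viability assay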
# Description: SANGER: Inhibition of human KG-1 cell growth in a cell viability assay.
# ES6 = conditions: Homo sapiens, ES6;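 also: growth inhibition of human ES6 cells, read out with a cell viability assay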
# Description: SANGER: Inhibition of human ES6 cell growth in a cell viability assay.
# NCI-H1581 = conditions: Homo sapiens, NCI-H1581;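 also: cell growth inhibition read out by a viability assay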
# Description: SANGER: Inhibition of human NCI-H1581 cell growth in a cell viability assay.
# LB373-MEL-D = conditions: Homo sapiens, LB373-MEL-D;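 also: growth inhibition of the cell line, read out in a cell viability assay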
# Description: SANGER: Inhibition of human LB373-MEL-D cell growth in a cell viability assay.
# KE-37 = conditions: Homo sapiens, KE-37;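 also: growth inhibition of KE-37 cells, read out with a cell viability assay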
# Description: SANGER: Inhibition of human KE-37 cell growth in a cell viability assay.
# MZ2-MEL = conditions: Homo sapiens, MZ2-MEL;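 also: growth inhibition of MZ2-MEL cells read out with a cell viability assay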
# Description: SANGER: Inhibition of human MZ2-MEL cell growth in a cell viability assay.
# SCH = conditions: Homo sapiens, SCH;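 also: growth inhibition of human SCH cells, read out in a cell viability assay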
# Description: SANGER: Inhibition of human SCH cell growth in a cell viability assay.
# NCI-N87 = conditions: Homo sapiens, NCI-N87;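 also: growth inhibition of human NCI-N87 cells, read out with a cell viability assay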
# Description: SANGER: Inhibition of human NCI-N87 cell growth in a cell viability assay.
# P30-OHK = conditions: Homo sapiens, P30-OHK;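 also: growth inhibition of the P30-OHK cell line, read out with a cell viability assay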
# Description: SANGER: Inhibition of human P30-OHK cell growth in a cell viability assay.
# TK-10 = conditions: Homo sapiens, TK-10;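 also: growth inhibition of TK-10 cells, read out in a cell viability assay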
# Description: SANGER: Inhibition of human TK10 cell growth in a cell viability assay.
# TE-11 = conditions: Homo sapiens, TE-11;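 also: growth inhibition of human TE-11 cells, read out by a cell viability assay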
# Description: SANGER: Inhibition of human TE-11 cell growth in a cell viability assay.
# ES7 = conditions: Homo sapiens, ES7;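 also: growth inhibition of cultured human ES7 cells, read out as cell viability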
# Description: SANGER: Inhibition of human ES7 cell growth in a cell viability assay.
# Lu-65 = conditions: Homo sapiens, Lu-65;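 also: growth inhibition of Lu-65 cancer cells, read out by a cell viability assay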
# Description: SANGER: Inhibition of human LU-65 cell growth in a cell viability assay.
# RPMI-8226 = conditions: Homo sapiens, RPMI-8226
# Description: SANGER: Inhibition of human RPMI-8226 cell growth in a cell viability assay.
# ES5 = conditions: Homo sapiens, ES5;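 also: growth inhibition of human ES5 cells, read out by a cell viability assay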
# Description: SANGER: Inhibition of human ES5 cell growth in a cell viability assay.
# JVM-3 = conditions: Homo sapiens, JVM-3;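 also: growth inhibition of human JVM-3 cells, read out with a cell viability assay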
# Description: SANGER: Inhibition of human JVM-3 cell growth in a cell viability assay.
# BT-474 = conditions: Homo sapiens, BT-474
# Description: SANGER: Inhibition of human BT-474 cell growth in a cell viability assay.
# KARPAS-299 = conditions: Homo sapiens, KARPAS-299
# Description: SANGER: Inhibition of human KARPAS-299 cell growth in a cell viability assay.
# KALS-1 = conditions: Homo sapiens, KALS-1;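 also: growth inhibition of KALS-1 cells, determined with a cell viability assay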
# Description: SANGER: Inhibition of human KALS-1 cell growth in a cell viability assay.
# LC-2-ad = conditions: Homo sapiens, LC-2-ad;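 also: growth inhibition of human LC-2-ad cells, read out with a cell viability assay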
# Description: SANGER: Inhibition of human LC-2-ad cell growth in a cell viability assay.
# KARPAS-45 = conditions: Homo sapiens, KARPAS-45;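 also: inhibition of cell line growth, read out through a viability assay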
# Description: SANGER: Inhibition of human KARPAS-45 cell growth in a cell viability assay.
# K562 = conditions: Homo sapiens, K562
# Description: SANGER: Inhibition of human K-562 cell growth in a cell viability assay.
# NEC8 = conditions: Homo sapiens, NEC8;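 also: growth inhibition of human NEC8 cells, read out by a cell viability assay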
# Description: SANGER: Inhibition of human NEC8 cell growth in a cell viability assay.
# NCI-H1650 = conditions: Homo sapiens, NCI-H1650;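 also: growth inhibition of human NCI-H1650 cells measured by a cell viability assay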
# Description: SANGER: Inhibition of human NCI-H1650 cell growth in a cell viability assay.
# NMC-G1 = conditions: Homo sapiens, NMC-G1;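 also: growth inhibition of the NMC-G1 cell line, measured with a cell viability read-out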
# Description: SANGER: Inhibition of human NMC-G1 cell growth in a cell viability assay.
# NB10 = conditions: Homo sapiens, NB10;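 also: growth inhibition of NB10 cells, read out by a cell viability assay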
# Description: SANGER: Inhibition of human NB10 cell growth in a cell viability assay.
# KGN = conditions: Homo sapiens, KGN;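 also: growth inhibition of KGN cells, read out with a cell viability assay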
# Description: SANGER: Inhibition of human KGN cell growth in a cell viability assay.
# PSN1 = conditions: Homo sapiens, PSN1;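 also: suppression of growth of human PSN1 cells, read out by a cell viability assay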
# Description: SANGER: Inhibition of human PSN1 cell growth in a cell viability assay.
# LS-513 = conditions: Homo sapiens, LS-513
# Description: SANGER: Inhibition of human LS-513 cell growth in a cell viability assay.
# KY821 = conditions: Homo sapiens, KY821;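 also: growth inhibition of human KY821 cells, read out by a cell viability assay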
# Description: SANGER: Inhibition of human KY821 cell growth in a cell viability assay.
# NCI-H1648 = conditions: Homo sapiens, NCI-H1648;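 also: cell viability assay measuring inhibition of NCI-H1648 cell growth, from the Sanger screening data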
# Description: SANGER: Inhibition of human NCI-H1648 cell growth in a cell viability assay.
# SW872 = conditions: Homo sapiens, SW872;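 also: growth inhibition of SW872 cells, read out by a viability assay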
# Description: SANGER: Inhibition of human SW872 cell growth in a cell viability assay.
# JVM-2 = conditions: Homo sapiens, JVM-2;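 also: growth inhibition of JVM-2 cells determined by a cell viability assay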
# Description: SANGER: Inhibition of human JVM-2 cell growth in a cell viability assay.
# CW-2 = conditions: Homo sapiens, CW-2;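 also: growth inhibition of CW-2 cells, read out by a cell viability assay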
# Description: SANGER: Inhibition of human CW-2 cell growth in a cell viability assay.
# EC-GI-10 = conditions: Homo sapiens, EC-GI-10
# Description: SANGER: Inhibition of human EC-GI-10 cell growth in a cell viability assay.
# ES4 = conditions: Homo sapiens, ES4;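 also: growth inhibition of human ES4 cells, read out by a cell viability assay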
# Description: SANGER: Inhibition of human ES4 cell growth in a cell viability assay.
# ACN = conditions: Homo sapiens, ACN;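 also: growth inhibition of the human ACN cell line, read out via cell viability testing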
# Description: SANGER: Inhibition of human ACN cell growth in a cell viability assay.
# A101D = conditions: Homo sapiens, A101D;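 also: growth inhibition of the cell line, measured with a viability assay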
# Description: SANGER: Inhibition of human A101D cell growth in a cell viability assay.
# NOS-1 = conditions: Homo sapiens, NOS-1;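 also: growth inhibition of the human NOS-1 cell line, read out with a cell viability assay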
# Description: SANGER: Inhibition of human NOS-1 cell growth in a cell viability assay.
# TE-10 = conditions: Homo sapiens, TE-10;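 also: growth inhibition of TE-10 cells, measured by a cell viability assay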
# Description: SANGER: Inhibition of human TE-10 cell growth in a cell viability assay.
# RKO = conditions: Homo sapiens, RKO;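 also: growth inhibition of human RKO cells, read out with a cell viability assay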
# Description: SANGER: Inhibition of human RKO cell growth in a cell viability assay.
# KINGS-1 = conditions: Homo sapiens, KINGS-1;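 also: cell viability assay measuring suppression of KINGS-1 cell growth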
# Description: SANGER: Inhibition of human KINGS-1 cell growth in a cell viability assay.
# LS-411N = conditions: Homo sapiens, LS-411N
# MOLT-16 = conditions: Homo sapiens, MOLT-16;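 also: growth inhibition of human MOLT-16 cells, read out with a cell viability assay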
# Description: SANGER: Inhibition of human MOLT-16 cell growth in a cell viability assay.
compound,measurement,setting,value
Cc1cc([N+](=O)[O-])ccc1NS(=O)(=O)c1cc(Cl)ccc1Cl,IC50,NOMO-1,6.21 µM
same,IC50,LB831-BLC,2.1 µM
same,IC50,SW684,> 32 µM
same,IC50,GI-ME-N,11.5 µM
same,IC50,NCI-H446,> 32 µM
same,IC50,SBC-1,> 32 µM
same,IC50,KG-1,7 µM
same,IC50,ES6,3.03 µM
same,IC50,NCI-H1581,9.37 µM
same,IC50,LB373-MEL-D,2.86 µM
same,IC50,KE-37,> 32 µM
same,IC50,MZ2-MEL,1.44 µM
same,IC50,SCH,20.5 µM
same,IC50,NCI-N87,7.25 µM
same,IC50,P30-OHK,> 32 µM
same,IC50,TK-10,10.2 µM
same,IC50,TE-11,> 32 µM
same,IC50,ES7,11.1 µM
same,IC50,Lu-65,31.8 µM
same,IC50,RPMI-8226,6.56 µM
same,IC50,ES5,> 32 µM
same,IC50,JVM-3,> 32 µM
same,IC50,BT-474,4.42 µM
same,IC50,KARPAS-299,> 32 µM
same,IC50,KALS-1,8.54 µM
same,IC50,LC-2-ad,4.63 µM
same,IC50,KARPAS-45,4.51 µM
same,IC50,K562,26.9 µM
same,IC50,NEC8,21.7 µM
same,IC50,NCI-H1650,8.47 µM
same,IC50,NMC-G1,9.89 µM
same,IC50,NB10,16.3 µM
same,IC50,KGN,4.2 µM
same,IC50,PSN1,3.22 µM
same,IC50,LS-513,14.5 µM
same,IC50,KY821,> 32 µM
same,IC50,NCI-H1648,2.04 µM
same,IC50,SW872,4.95 µM
same,IC50,JVM-2,> 32 µM
same,IC50,CW-2,> 32 µM
same,IC50,EC-GI-10,11.3 µM
same,IC50,ES4,7.57 µM
same,IC50,ACN,3.71 µM
same,IC50,A101D,4.55 µM
same,IC50,NOS-1,2.06 µM
same,IC50,TE-10,4 µM
same,IC50,RKO,2.21 µM
same,IC50,KINGS-1,> 32 µM
same,IC50,LS-411N,4.52 µM
same,IC50,MOLT-16,5.12 µM
Oc1ccc2ccccc2c1SSc1c(O)ccc2ccccc12,IC50,NOMO-1,> 32 µM
same,IC50,LB831-BLC,> 32 µM
same,IC50,SW684,> 32 µM
same,IC50,GI-ME-N,> 32 µM
same,IC50,NCI-H446,> 32 µM
same,IC50,SBC-1,> 32 µM
same,IC50,KG-1,> 32 µM
same,IC50,ES6,> 32 µM
same,IC50,NCI-H1581,> 32 µM
same,IC50,LB373-MEL-D,> 32 µM
same,IC50,KE-37,3.5 µM
same,IC50,MZ2-MEL,> 32 µM
same,IC50,SCH,> 32 µM
same,IC50,NCI-N87,> 32 µM
same,IC50,P30-OHK,9.87 µM
same,IC50,TK-10,> 32 µM
same,IC50,TE-11,> 32 µM
same,IC50,ES7,> 32 µM
same,IC50,Lu-65,> 32 µM
same,IC50,RPMI-8226,> 32 µM
same,IC50,ES5,12.3 µM
same,IC50,JVM-3,> 32 µM
same,IC50,BT-474,7.41 µM
same,IC50,KARPAS-299,> 32 µM
same,IC50,KALS-1,> 32 µM
same,IC50,LC-2-ad,24.1 µM
same,IC50,KARPAS-45,12.8 µM
same,IC50,K562,> 32 µM
same,IC50,NEC8,> 32 µM
same,IC50,NCI-H1650,> 32 µM
same,IC50,NMC-G1,> 32 µM
same,IC50,NB10,> 32 µM
same,IC50,KGN,12.4 µM
same,IC50,PSN1,> 32 µM
same,IC50,LS-513,> 32 µM
same,IC50,KY821,> 32 µM
same,IC50,NCI-H1648,> 32 µM
same,IC50,SW872,7.84 µM
same,IC50,JVM-2,> 32 µM
same,IC50,CW-2,> 32 µM
same,IC50,EC-GI-10,> 32 µM
same,IC50,ES4,26.3 µM
same,IC50,ACN,> 32 µM
same,IC50,A101D,> 32 µM
same,IC50,NOS-1,11.7 µM
same,IC50,TE-10,> 32 µM
same,IC50,RKO,5.28 µM
same,IC50,KINGS-1,> 32 µM
same,IC50,LS-411N,> 32 µM
same,IC50,MOLT-16,> 32 µM

# Reference: ChEMBL document CHEMBL1201861, “Genomics of Drug Sensitity in Cancer screening data, Wellcome Trust Sanger Institute”
